Values quoted from earlier work, collected in paper PMC3853759 (International Journal of Pharmaceutical Investigation, 2013).

[Zn] [Zn, Zinc]
oral Zn dose producing acute toxicity (rats): 237 to 623 mg/kg
oral Zn dose producing acute toxicity (mice): 86 to 605 mg/kg
